Experimental data published in US20230111310A1, “CARBOXYLIC ACID DERIVATIVE-SUBSTITUTED IMINO ARYL COMPOUND, PREPARATION METHOD THEREFOR, HERBICIDAL COMPOSITION AND USE THEREOF” (Qingdao Kingagroot Chemical Compound Co., Ltd., priority 2020, published 2023).

Legend:
Experiment in all cases: Weeding effect in post-emergence stage
Format in all cases: in vivo
Details in all cases: fresh weight control rate level
Abutilon theophrasti = tested on: Abutilon theophrasti
Procedure, shortened: (§1)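 Pot-grown greenhouse plants sprayed at 2–3 leaf stage, 2 weeks after sowing, with compound in acetone/Tween 80 plus methyl oleate emulsifiable concentrate (1.5 liter/ha) at 500–7.5 g/ha. Growth control rated 3 weeks after treatment; mean of three replicates.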

Alopecurus japonicus = tested on: Alopecurus japonicus
Procedure, shortened: as §1

Digitaria sanguinalis = tested on: Digitaria sanguinalis
Procedure, shortened: as §1

Eleusine indica = tested on: Eleusine indica
Procedure, shortened: as §1

Setaria viridis = tested on: Setaria viridis
Procedure, shortened: as §1

Echinochloa crusgalli = tested on: Echinochloa crusgalli
Procedure, shortened: as §1

Row | SMILES | Weeding effect in post-emergence stage, Abutilon theophrasti (level) (Abutilon theophrasti; Dose 15 g/ha) | Weeding effect in post-emergence stage, Alopecurus japonicus (level) (Alopecurus japonicus; Dose 15 g/ha) | Weeding effect in post-emergence stage, Digitaria sanguinalis (level) (Digitaria sanguinalis; Dose 15 g/ha) | Weeding effect in post-emergence stage, Eleusine indica (level) (Eleusine indica; Dose 15 g/ha) | Weeding effect in post-emergence stage, Setaria viridis (level) (Setaria viridis; Dose 15 g/ha) | Weeding effect in post-emergence stage, Echinochloa crusgalli (level) (Echinochloa crusgalli; Dose 15 g/ha) | other results
1 | CC(O/N=C/c1cc(-n2c(=O)cc(C(F)(F)F)n(C)c2=O)c(F)cc1Cl)C(=O)NS(=O)(=O)N(C)C(C)C (stereo not drawn) [Compound 421] | 5 (Level 5: growth control rate is above 85%) | 5 (Level 5: growth control rate is above 85%) | 5 (Level 5: growth control rate is above 85%) | 5 (Level 5: growth control rate is above 85%) | 5 (Level 5: growth control rate is above 85%) | 5 (Level 5: growth control rate is above 85%) | 
2 | Cc1cc(C)n(C(=O)C(C)O/N=C/c2cc(-n3c(=O)cc(C(F)(F)F)n(C)c3=O)c(F)cc2Cl)n1 (stereo not drawn) [Compound 424] |  |  |  |  |  |  | Weeding effect in post-emergence stage, Abutilon theophrasti (level) (Abutilon theophrasti; Dose 30 g/ha): 5 (Level 5: growth control rate is above 85%); Weeding effect in post-emergence stage, Alopecurus japonicus (level) (Alopecurus japonicus; Dose 30 g/ha): 5 (Level 5: growth control rate is above 85%); Weeding effect in post-emergence stage, Digitaria sanguinalis (level) (Digitaria sanguinalis; Dose 30 g/ha): 5 (Level 5: growth control rate is above 85%); Weeding effect in post-emergence stage, Eleusine indica (level) (Eleusine indica; Dose 30 g/ha): 5 (Level 5: growth control rate is above 85%); Weeding effect in post-emergence stage, Setaria viridis (level) (Setaria viridis; Dose 30 g/ha): 5 (Level 5: growth control rate is above 85%); Weeding effect in post-emergence stage, Echinochloa crusgalli (level) (Echinochloa crusgalli; Dose 30 g/ha): 5 (Level 5: growth control rate is above 85%)
3 | CCn1c(C(F)(F)F)cc(=O)n(-c2cc(/C=N/OC(C)C(=O)OC)c(Cl)cc2F)c1=O (stereo not drawn) [Compound 426] |  |  |  |  |  |  | Weeding effect in post-emergence stage, Abutilon theophrasti (level) (Abutilon theophrasti; Dose 250 g/ha): 5 (Level 5: growth control rate is above 85%); Weeding effect in post-emergence stage, Alopecurus japonicus (level) (Alopecurus japonicus; Dose 250 g/ha): 5 (Level 5: growth control rate is above 85%); Weeding effect in post-emergence stage, Digitaria sanguinalis (level) (Digitaria sanguinalis; Dose 250 g/ha): 5 (Level 5: growth control rate is above 85%); Weeding effect in post-emergence stage, Eleusine indica (level) (Eleusine indica; Dose 250 g/ha): 5 (Level 5: growth control rate is above 85%); Weeding effect in post-emergence stage, Setaria viridis (level) (Setaria viridis; Dose 250 g/ha): 5 (Level 5: growth control rate is above 85%); Weeding effect in post-emergence stage, Echinochloa crusgalli (level) (Echinochloa crusgalli; Dose 250 g/ha): 5 (Level 5: growth control rate is above 85%)
4 | COC(=O)C(C)O/N=C/c1cc(-n2c(=O)c(Cl)c(C(F)(F)F)n(C)c2=O)c(F)cc1Cl (stereo not drawn) [Compound 431] | 5 (Level 5: growth control rate is above 85%) | 5 (Level 5: growth control rate is above 85%) | 5 (Level 5: growth control rate is above 85%) | 5 (Level 5: growth control rate is above 85%) | 5 (Level 5: growth control rate is above 85%) | 5 (Level 5: growth control rate is above 85%) | 
5 | COC(=O)C(C)O/N=C/c1cc(N2C(=O)CC(N)(C(F)(F)F)N(C)C2=O)c(F)cc1Cl (stereo not drawn) [Compound 432] | 5 (Level 5: growth control rate is above 85%) | 5 (Level 5: growth control rate is above 85%) | 5 (Level 5: growth control rate is above 85%) | 5 (Level 5: growth control rate is above 85%) | 5 (Level 5: growth control rate is above 85%) | 5 (Level 5: growth control rate is above 85%) | 
6 | CC(O/N=C/c1cc(-n2c(=O)n(C)c(=S)n(C)c2=O)c(F)cc1Cl)C(=O)O (stereo not drawn) [Compound 438] |  |  |  |  |  |  | Weeding effect in post-emergence stage, Abutilon theophrasti (level) (Abutilon theophrasti; Dose 30 g/ha): 5 (Level 5: growth control rate is above 85%); Weeding effect in post-emergence stage, Alopecurus japonicus (level) (Alopecurus japonicus; Dose 30 g/ha): 5 (Level 5: growth control rate is above 85%); Weeding effect in post-emergence stage, Digitaria sanguinalis (level) (Digitaria sanguinalis; Dose 30 g/ha): 5 (Level 5: growth control rate is above 85%); Weeding effect in post-emergence stage, Eleusine indica (level) (Eleusine indica; Dose 30 g/ha): 5 (Level 5: growth control rate is above 85%); Weeding effect in post-emergence stage, Setaria viridis (level) (Setaria viridis; Dose 30 g/ha): 5 (Level 5: growth control rate is above 85%); Weeding effect in post-emergence stage, Echinochloa crusgalli (level) (Echinochloa crusgalli; Dose 30 g/ha): 5 (Level 5: growth control rate is above 85%)
7 | CC(O/N=C/c1cc(-n2c(=O)n(C)c(=S)n(C)c2=O)c(F)cc1Cl)C(=O)OCC(F)(F)F (stereo not drawn) [Compound 439] |  |  |  |  |  |  | Weeding effect in post-emergence stage, Abutilon theophrasti (level) (Abutilon theophrasti; Dose 30 g/ha): 5 (Level 5: growth control rate is above 85%); Weeding effect in post-emergence stage, Alopecurus japonicus (level) (Alopecurus japonicus; Dose 30 g/ha): 5 (Level 5: growth control rate is above 85%); Weeding effect in post-emergence stage, Digitaria sanguinalis (level) (Digitaria sanguinalis; Dose 30 g/ha): 5 (Level 5: growth control rate is above 85%); Weeding effect in post-emergence stage, Eleusine indica (level) (Eleusine indica; Dose 30 g/ha): 5 (Level 5: growth control rate is above 85%); Weeding effect in post-emergence stage, Setaria viridis (level) (Setaria viridis; Dose 30 g/ha): 5 (Level 5: growth control rate is above 85%); Weeding effect in post-emergence stage, Echinochloa crusgalli (level) (Echinochloa crusgalli; Dose 30 g/ha): 5 (Level 5: growth control rate is above 85%)
8 | C#CCCOC(=O)C(C)O/N=C/c1cc(-n2c(=O)cc(C(F)(F)F)n(C)c2=O)c(F)cc1Cl (stereo not drawn) [Compound 442] | 5 (Level 5: growth control rate is above 85%) | 5 (Level 5: growth control rate is above 85%) | 5 (Level 5: growth control rate is above 85%) | 5 (Level 5: growth control rate is above 85%) | 5 (Level 5: growth control rate is above 85%) | 5 (Level 5: growth control rate is above 85%) | 
9 | CC(C#N)OC(=O)C(C)O/N=C/c1cc(-n2c(=O)cc(C(F)(F)F)n(C)c2=O)c(F)cc1Cl (stereo not drawn) [Compound 443] | 5 (Level 5: growth control rate is above 85%) | 5 (Level 5: growth control rate is above 85%) | 5 (Level 5: growth control rate is above 85%) | 5 (Level 5: growth control rate is above 85%) | 5 (Level 5: growth control rate is above 85%) | 5 (Level 5: growth control rate is above 85%) | 
10 | CC(CC#N)OC(=O)C(C)O/N=C/c1cc(-n2c(=O)cc(C(F)(F)F)n(C)c2=O)c(F)cc1Cl (stereo not drawn) [Compound 444] | 5 (Level 5: growth control rate is above 85%) | 5 (Level 5: growth control rate is above 85%) | 5 (Level 5: growth control rate is above 85%) | 5 (Level 5: growth control rate is above 85%) | 5 (Level 5: growth control rate is above 85%) | 5 (Level 5: growth control rate is above 85%) | 
11 | CC(C#N)COC(=O)C(C)O/N=C/c1cc(-n2c(=O)cc(C(F)(F)F)n(C)c2=O)c(F)cc1Cl (stereo not drawn) [Compound 445] | 5 (Level 5: growth control rate is above 85%) | 5 (Level 5: growth control rate is above 85%) | 5 (Level 5: growth control rate is above 85%) | 5 (Level 5: growth control rate is above 85%) | 5 (Level 5: growth control rate is above 85%) | 5 (Level 5: growth control rate is above 85%) | 
12 | CC(O/N=C/c1cc(-n2c(=O)cc(C(F)(F)F)n(C)c2=O)c(F)cc1Cl)C(=O)OCCCC#N (stereo not drawn) [Compound 446] | 5 (Level 5: growth control rate is above 85%) | 5 (Level 5: growth control rate is above 85%) | 5 (Level 5: growth control rate is above 85%) | 5 (Level 5: growth control rate is above 85%) | 5 (Level 5: growth control rate is above 85%) | 5 (Level 5: growth control rate is above 85%) | 
13 | CC(O/N=C/c1cc(-n2c(=O)cc(C(F)(F)F)n(C)c2=O)c(F)cc1Cl)C(=O)OCC1(C#N)CC1 (stereo not drawn) [Compound 447] | 5 (Level 5: growth control rate is above 85%) | 5 (Level 5: growth control rate is above 85%) | 5 (Level 5: growth control rate is above 85%) | 5 (Level 5: growth control rate is above 85%) | 5 (Level 5: growth control rate is above 85%) | 5 (Level 5: growth control rate is above 85%) | 
14 | CC(O/N=C/c1cc(-n2c(=O)cc(C(F)(F)F)n(C)c2=O)c(F)cc1Cl)C(=O)OCCN(C)C (stereo not drawn) [Compound 448] | 5 (Level 5: growth control rate is above 85%) | 5 (Level 5: growth control rate is above 85%) | 5 (Level 5: growth control rate is above 85%) | 5 (Level 5: growth control rate is above 85%) | 5 (Level 5: growth control rate is above 85%) | 5 (Level 5: growth control rate is above 85%) | 
15 | CC(=NOC(=O)C(C)ON=Cc1cc(-n2c(=O)cc(C(F)(F)F)n(C)c2=O)c(F)cc1Cl)C(C)(C)C (stereo not drawn) [Compound 449] | 5 (Level 5: growth control rate is above 85%) | 5 (Level 5: growth control rate is above 85%) | 5 (Level 5: growth control rate is above 85%) | 5 (Level 5: growth control rate is above 85%) | 5 (Level 5: growth control rate is above 85%) | 5 (Level 5: growth control rate is above 85%) | 
